Data taken from patent publication US8530465B2, “1, 2-disubstituted amido-anthraquinone derivatives, preparation method and application thereof” (National Defense Medical Center, priority 2010, dated 2013).

How the values were obtained:
SW-620 = test: NCI drug screen, SW-620; assay type: cell-based, human; conditions: SW-620 (Colon Cancer); 1.00E−5 Molar
Method: (§1) In brief, cellular protein levels were determined after 48 hours of drug exposure by sulforhodamine B colorimetry. Through the use of a time 0 cell control, the cell growth can be determined for each cell line thus allowing calculations of the 50% growth inhibitory concentration (GI50), the total growth inhibition (TGI), and the 50% lethal concentration (LC50). Comparison to plates not exposed to drug permits determination of concentration and times of exposure conferring 50% net growth inhibition (GI50), TGI, and 50% cell kill (LC50).
(§2) The screening system in United State National Cancer Institute (NCI) is consisted of 60 kinds of different human cancer cells, which can be used to assay the growth-inhibiting ability or cell toxicity of a compound against various cancer and tumor at a certain concentration.

SR = test: NCI drug screen, SR; assay type: cell-based, human; conditions: SR (Leukemia); 1.00E−5 Molar
Method: as §1, §2

COLO 205 = test: NCI drug screen, COLO 205; assay type: cell-based, human; conditions: COLO 205 (Colon Cancer); 1.00E−5 Molar
Method: as §1, §2

SF-295 = test: NCI drug screen, SF-295; assay type: cell-based, human; conditions: SF-295 (CNS Cancer); 1.00E−5 Molar
Method: as §1, §2

KM12 = test: NCI drug screen, KM12; assay type: cell-based, human; conditions: KM12 (Colon Cancer); 1.00E−5 Molar
Method: as §1, §2

[1] = MTT assay, PhTERT-SEAP (H1299); assay type: cell-based, human; conditions: human, H1299 cells carrying the PhTERT-SEAP reporter, PhTERT-SEAP (H1299); for viability at 1 μM: Conc. 1 μM, read-out: Relative MTT viability (%); for viability at 10 μM: Conc. 10 μM; for viability at 10 μM / viability at 100 μM: read-out: Relative MTT viability (%) (converted); for viability at 100 μM: Conc. 100 μM
In short: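 Cultured cells received MTT for 4 h at 37 °C, then lysis buffer overnight at 37 °C. Optical density was read at 550 nm.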

HCT-15 = test: NCI drug screen, HCT-15; assay type: cell-based, human; conditions: HCT-15 (Colon Cancer); 1.00E−5 Molar
Method: as §1, §2

HCC-2998 = test: NCI drug screen, HCC-2998; assay type: cell-based, human; conditions: HCC-2998 (Colon Cancer); 1.00E−5 Molar
Method: as §1, §2

CAKI-1 = test: NCI drug screen, CAKI-1; assay type: cell-based, human; conditions: CAKI-1 (Renal Cancer); 1.00E−5 Molar
Method: as §1, §2

SNB-19 = test: NCI drug screen, SNB-19; assay type: cell-based, human; conditions: SNB-19 (CNS Cancer); 1.00E−5 Molar
Method: as §1, §2

ACHN = test: NCI drug screen, ACHN; assay type: cell-based, human; conditions: ACHN (Renal Cancer); 1.00E−5 Molar
Method: as §1, §2

K562 = test: NCI drug screen, K562; assay type: cell-based, human; conditions: K562 (Leukemia); 1.00E−5 Molar
Method: as §1, §2

T-47D = test: NCI drug screen, T-47D; assay type: cell-based, human; conditions: T-47D (Breast Cancer); 1.00E−5 Molar
Method: as §1, §2

MOLT-4 = test: NCI drug screen, MOLT-4; assay type: cell-based, human; conditions: MOLT-4 (Leukemia); 1.00E−5 Molar
Method: as §1, §2

RXF 393 = test: NCI drug screen, RXF 393; assay type: cell-based, human; conditions: RXF 393 (Renal Cancer); 1.00E−5 Molar
Method: as §1, §2

HOP-92 = test: NCI drug screen, HOP-92; assay type: cell-based, human; conditions: HOP-92 (Non-Small Cell Lung Cancer); 1.00E−5 Molar
Method: as §1, §2

UACC-62 = test: NCI drug screen, UACC-62; assay type: cell-based, human; conditions: UACC-62 (Melanoma); 1.00E−5 Molar
Method: as §1, §2

SF-268 = test: NCI drug screen, SF-268; assay type: cell-based, human; conditions: SF-268 (CNS Cancer); 1.00E−5 Molar
Method: as §1, §2

MDA-MB-231/ATCC = test: NCI drug screen, MDA-MB-231/ATCC; assay type: cell-based, human; conditions: MDA-MB-231/ATCC (Breast Cancer); 1.00E−5 Molar
Method: as §1, §2

SK-MEL-5 = test: NCI drug screen, SK-MEL-5; assay type: cell-based, human; conditions: SK-MEL-5 (Melanoma); 1.00E−5 Molar
Method: as §1, §2

SNB-75 = test: NCI drug screen, SNB-75; assay type: cell-based, human; conditions: SNB-75 (CNS Cancer); 1.00E−5 Molar
Method: as §1, §2

MDA-MB-468 = test: NCI drug screen, MDA-MB-468; assay type: cell-based, human; conditions: MDA-MB-468 (Breast Cancer); 1.00E−5 Molar
Method: as §1, §2

LOX IMVI = test: NCI drug screen, LOX IMVI; assay type: cell-based, human; conditions: LOX IMVI (Melanoma); 1.00E−5 Molar
Method: as §1, §2

[2] = system: 60 kinds of different human cancer cells; test: NCI in vitro 60-cell Drug Screen, whole panel; assay type: cell-based; conditions: 1.00E−5 Molar; for Growth Percent, Mean: mean over tested cell lines; for growth-inhibiting effect against cancer cells, by cancer type: NCI's screen
Method: as §1
From the data analysis it follows that approximately 95% of the actives (potent anticancer drugs) from the 60 cell line screen can be identified. By these criteria, five compounds (each with its certification number, refer to FIG. 4) of the invention were reported that having anticancer activity.
as §2

A549/ATCC = test: NCI drug screen, A549/ATCC; assay type: cell-based, human; conditions: A549/ATCC (Non-Small Cell Lung Cancer); 1.00E−5 Molar
Method: as §1, §2

SK-MEL-2 = test: NCI drug screen, SK-MEL-2; assay type: cell-based, human; conditions: SK-MEL-2 (Melanoma); 1.00E−5 Molar
Method: as §1, §2

OVCAR-5 = test: NCI drug screen, OVCAR-5; assay type: cell-based, human; conditions: OVCAR-5 (Ovarian Cancer); 1.00E−5 Molar
Method: as §1, §2

NCI-H460 = test: NCI drug screen, NCI-H460; assay type: cell-based, human; conditions: NCI-H460 (Non-Small Cell Lung Cancer); 1.00E−5 Molar
Method: as §1, §2

EKVX = test: NCI drug screen, EKVX; assay type: cell-based, human; conditions: EKVX (Non-Small Cell Lung Cancer); 1.00E−5 Molar
Method: as §1, §2

SMILES	Growth Percent (SW-620) [%]	Growth Percent (SF-295) [%]	Growth Percent (KM12) [%]	viability at 1 μM [1] [%]	viability at 10 μM [1] [%]	Growth Percent (HCT-15) [%]	Growth Percent (SNB-19) [%]	Growth Percent (ACHN) [%]	Growth Percent (MOLT-4) [%]	Growth Percent (HOP-92) [%]	Growth Percent (UACC-62) [%]	Growth Percent (SF-268) [%]	Growth Percent (MDA-MB-231/ATCC) [%]	Growth Percent (SK-MEL-5) [%]	Growth Percent (SNB-75) [%]	Growth Percent (MDA-MB-468) [%]	Growth Percent (LOX IMVI) [%]	Growth Percent, Mean [2] [%]	Growth Percent (SK-MEL-2) [%]	Growth Percent (OVCAR-5) [%]	also measured
Cc1ccc(C(=O)Nc2ccc3c(c2NC(=O)c2ccc(C)cc2)C(=O)c2ccccc2C3=O)cc1 [CC-04, 1,2-bis-(4-methylbenzamido)-anthraquinone]	93.79	110.81	94.21	100 ± 4.4	117	102.44	103.91	112.43	89.63	91.21	87.50	98.91	93.29	94.04	102.26	104.17	84.41	96.19	100.65	110.18	Growth Percent (SR): 87.69%; Growth Percent (COLO 205): 108.57%; viability at 100 μM [1]: 62%; Growth Percent (HCC-2998): 84.68%; Growth Percent (CAKI-1): 94.89%; Growth Percent (K562): 107.54%; Growth Percent (T-47D): 100.00%; Growth Percent (RXF 393): 88.25%; Growth Percent (A549/ATCC): 90.46%; Growth Percent (NCI-H460): 88.62%
Cc1ccc(C(=O)Nc2c(NC(=O)CCl)ccc3c2C(=O)c2ccccc2C3=O)cc1 [CC-12, 1-(4-methylbenzamido)-2-(chloroacetamido)-anthraquinone]	−43.27	79.70	−19.53	104 ± 7.83	2.77	−50.22	88.40	21.92	−23.17	−68.77	−67.80	14.63	24.67	−98.72	6.31	−83.42	−57.05	−1.96	52.00	109.55	Growth Percent (SR): −19.84%; Growth Percent (COLO 205): −53.43%; Growth Percent (EKVX): 88.22%; Growth Percent (T-47D): −49.46%; growth-inhibiting effect against cancer cells, by cancer type [2]: exhibited growth-inhibiting effect against cancer cells such as leukemia, non-small cell lung cancer, colon cancer, central nervous system (CNS) cancer, melanoma, ovarian cancer, renal cancer, prostate cancer, breast cancer; Growth Percent (A549/ATCC): −81.71%; Growth Percent (NCI-H460): 95.65%
O=C(CCl)Nc1ccc2c(c1NC(=O)Cc1ccccc1)C(=O)c1ccccc1C2=O [CC-23, 1-[2-(phenyl)acetylamino]-2-(chloroacetamido)-anthraquinone]	83.41	98.48	80.59	82 ± 1.79	5.94	68.55	124.27	79.64	11.40	73.63	59.67	80.14	82.04	51.32	109.14	51.02	36.29	73.78	−6.49	119.04	Growth Percent (SR): −31.25%; viability at 100 μM [1]: 3.98%; Growth Percent (HCC-2998): 94.74%; Growth Percent (EKVX): 102.08%; growth-inhibiting effect against cancer cells, by cancer type [2]: could inhibit the cancer cell growth of leukemia and melanoma; Growth Percent (NCI-H460): 104.50%
Cc1ccc(C(=O)Nc2c(NC(=O)CN3CCCC3)ccc3c2C(=O)c2ccccc2C3=O)cc1 [CC-38, 1-(4-methylbenzamido)-2-[2-(tetrahydro-1H-1-pyrrolyl)acetylamino]-anthra quinone]	82.29	68.97	51.05	88.2 ± 4.94	69	73.22	108.22	82.23	48.20	59.33	76.82	86.17	73.34	61.74	66.03	69.27	80.62	74.53	102.17	102.31	Growth Percent (COLO 205): 65.60%; viability at 100 μM [1]: 5.05%; Growth Percent (HCC-2998): 84.60%; Growth Percent (CAKI-1): 55.64%; Growth Percent (EKVX): 65.93%; Growth Percent (K562): 40.86%; Growth Percent (T-47D): 44.33%; Growth Percent (RXF 393): 63.80%; Growth Percent (A549/ATCC): 84.88%; Growth Percent (NCI-H460): 61.05%
